# Data: ChEMBL document CHEMBL4387741, “Optimization of novel reversible Bruton's tyrosine kinase inhibitors identified using Tethering-fragment-based screens” (Bioorg Med Chem, 2019)
# Columns and labels:
# [1] = target: Serine/threonine-protein kinase WNK3 (Homo sapiens) (UniProt Q9BYP7); assay: Inhibition of wild-type human partial length WNK3 (M1 to D434 residues) expressed in mammalian expression system at 1 uM by Kinomescan method relative to control
# [2] = target: MAP/microtubule affinity-regulating kinase 4 (Homo sapiens) (UniProt Q96L34); assay: Inhibition of wild-type human partial length MARK4 (K29 to G340 residues) expressed in bacterial expression system at 1 uM by Kinomescan method relative to control
# [3] = target: Ribosomal protein S6 kinase alpha-3 (Homo sapiens) (UniProt P51812); assay: Inhibition of wild-type human partial length N-terminal RSK2 kinase domain 1 (M1 to D394 residues) expressed in mammalian expression system at 1 uM by Kinomescan method relative to control
# [4] = target: Muscle, skeletal receptor tyrosine-protein kinase (Homo sapiens) (UniProt O15146); assay: Inhibition of wild-type human partial length MUSK (M553 to V869 residues) expressed in bacterial expression system at 1 uM by Kinomescan method relative to control
# [5] = target: Mitogen-activated protein kinase kinase kinase 5 (Homo sapiens) (UniProt Q99683); assay: Inhibition of wild-type human partial length ASK1 (E648 to S964 residues) expressed in bacterial expression system at 1 uM by Kinomescan method relative to control
# [6] = target: Interleukin-1 receptor-associated kinase 3 (Homo sapiens) (UniProt Q9Y616); assay: Inhibition of wild-type human partial length IRAK3 (V147 to E596 residues) expressed in bacterial expression system at 1 uM by Kinomescan method relative to control
# [7] = target: Insulin receptor-related protein (Homo sapiens) (UniProt P14616); assay: Inhibition of wild-type human partial length INSRR (R950 to E1278 residues) expressed in bacterial expression system at 1 uM by Kinomescan method relative to control
# [8] = target: Mitogen-activated protein kinase 8 (Homo sapiens) (UniProt P45983); assay: Inhibition of wild-type human full length JNK1 (M1 to Q384 residues) expressed in mammalian expression system at 1 uM by Kinomescan method relative to control
# [9] = target: Fibroblast growth factor receptor 1 (Homo sapiens) (UniProt P11362); assay: Inhibition of wild-type human partial length FGFR1 (P357 to V669 residues) expressed in bacterial expression system at 10 uM by Kinomescan method relative to control
# [10] = target: Mast/stem cell growth factor receptor Kit (Homo sapiens) (UniProt P10721); assay: Inhibition of wild-type human partial length KIT (I571 to D952 residues) expressed in bacterial expression system at 10 uM by Kinomescan method relative to control
# [11] = target: Dual specificity mitogen-activated protein kinase kinase 3 (Homo sapiens) (UniProt P46734); assay: Inhibition of wild-type human full length MEK3 (M1 to S318 residues) expressed in mammalian expression system at 10 uM by Kinomescan method relative to control
# [12] = target: Serine/threonine-protein kinase 33 (Homo sapiens) (UniProt Q9BYT3); assay: Inhibition of wild-type human full length STK33 (M1 to L514 residues) expressed in bacterial expression system at 10 uM by Kinomescan method relative to control
# Chain of Serine/threonine-protein kinase 33 (Homo sapiens) (Q9BYT3 whole entry, looked up, the tested form may be a part): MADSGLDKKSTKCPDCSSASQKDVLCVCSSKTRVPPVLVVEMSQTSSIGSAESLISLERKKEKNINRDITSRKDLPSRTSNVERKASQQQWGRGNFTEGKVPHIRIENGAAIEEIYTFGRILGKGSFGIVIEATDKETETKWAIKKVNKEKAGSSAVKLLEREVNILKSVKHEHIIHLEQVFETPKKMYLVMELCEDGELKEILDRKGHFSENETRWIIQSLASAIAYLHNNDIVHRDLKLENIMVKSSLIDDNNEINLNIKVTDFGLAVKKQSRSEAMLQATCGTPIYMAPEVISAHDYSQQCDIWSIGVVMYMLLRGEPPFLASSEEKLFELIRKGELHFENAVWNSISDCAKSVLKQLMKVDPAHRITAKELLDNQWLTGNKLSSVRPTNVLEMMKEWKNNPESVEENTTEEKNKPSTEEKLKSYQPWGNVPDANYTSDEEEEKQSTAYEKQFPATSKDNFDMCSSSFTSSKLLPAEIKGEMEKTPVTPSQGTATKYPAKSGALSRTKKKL
# [13] = target: Tyrosine-protein kinase ABL1 (Homo sapiens) (UniProt P00519); assay: Inhibition of wild-type human non-phosphorylated ABL1 (S229 to K512 residues) expressed in mammalian expression system at 10 uM by Kinomescan method relative to control
# [14] = target: Tyrosine-protein kinase Fgr (Homo sapiens) (UniProt P09769); assay: Inhibition of wild-type human partial length FGR (L233 to T529 residues) expressed in bacterial expression system at 10 uM by Kinomescan method relative to control
# [15] = tested on: Receptor-type tyrosine-protein kinase FLT3 (Homo sapiens), P36888 [D835V]; assay: Inhibition of human partial length FLT3 D835V mutant (V592 to Y969 residues) expressed in bacterial expression system at 10 uM by Kinomescan method relative to control
# [16] = target: Tyrosine-protein kinase Tec (Homo sapiens) (UniProt P42680); assay: Inhibition of wild-type human partial length TEC (L341 to D620 residues) expressed in bacterial expression system at 10 uM by Kinomescan method relative to control
# Chain of Tyrosine-protein kinase Tec (Homo sapiens) (P42680 whole entry, the tested form may be a part): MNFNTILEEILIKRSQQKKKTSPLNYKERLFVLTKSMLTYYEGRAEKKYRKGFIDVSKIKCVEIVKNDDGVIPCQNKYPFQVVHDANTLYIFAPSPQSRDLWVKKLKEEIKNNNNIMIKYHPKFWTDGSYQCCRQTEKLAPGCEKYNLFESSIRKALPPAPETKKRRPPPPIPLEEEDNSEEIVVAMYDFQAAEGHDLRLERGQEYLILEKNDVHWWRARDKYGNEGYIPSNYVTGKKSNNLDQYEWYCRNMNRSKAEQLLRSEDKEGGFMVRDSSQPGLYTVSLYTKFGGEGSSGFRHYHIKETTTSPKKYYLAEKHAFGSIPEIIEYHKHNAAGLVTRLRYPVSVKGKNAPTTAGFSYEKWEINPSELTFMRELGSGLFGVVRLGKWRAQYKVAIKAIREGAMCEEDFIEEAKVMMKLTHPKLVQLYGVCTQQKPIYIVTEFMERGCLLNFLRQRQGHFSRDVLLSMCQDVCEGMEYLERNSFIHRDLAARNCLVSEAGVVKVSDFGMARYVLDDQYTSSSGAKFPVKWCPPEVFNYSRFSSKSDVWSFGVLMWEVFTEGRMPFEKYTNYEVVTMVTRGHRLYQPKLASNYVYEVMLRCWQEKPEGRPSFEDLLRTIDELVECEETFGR
# [17] = target: Peripheral plasma membrane protein CASK (Homo sapiens) (UniProt O14936); assay: Inhibition of wild-type human partial length CASK (M1 to H315 residues) expressed in mammalian expression system at 10 uM by Kinomescan method relative to control
# [18] = target: Activin receptor type-1 (Homo sapiens) (UniProt Q04771); assay: Inhibition of wild-type human ACVR1 (C188 to C509 residues) expressed in bacterial expression system at 10 uM by Kinomescan method relative to control
# [19] = target: Ribosomal protein S6 kinase alpha-5 (Homo sapiens) (UniProt O75582); assay: Inhibition of wild-type human partial length N-terminal RPS6KA5 kinase domain 1 expressed in bacterial expression system at 10 uM by Kinomescan method relative to control
# [20] = target: Cyclin-dependent kinase 11A (Homo sapiens) (UniProt Q9UQ88); assay: Inhibition of wild-type human partial length CDC2L2 (D391 to K730 residues) expressed in bacterial expression system at 10 uM by Kinomescan method relative to control
# [21] = target: Cyclin-dependent kinase 13 (Homo sapiens) (UniProt Q14004); assay: Inhibition of wild-type human partial length CDC2L5 (H675 to S1054 residues) expressed in mammalian expression system at 10 uM by Kinomescan method relative to control
# Chain of Cyclin-dependent kinase 13 (Homo sapiens) (Q14004 whole entry, looked up, the tested form may be a part): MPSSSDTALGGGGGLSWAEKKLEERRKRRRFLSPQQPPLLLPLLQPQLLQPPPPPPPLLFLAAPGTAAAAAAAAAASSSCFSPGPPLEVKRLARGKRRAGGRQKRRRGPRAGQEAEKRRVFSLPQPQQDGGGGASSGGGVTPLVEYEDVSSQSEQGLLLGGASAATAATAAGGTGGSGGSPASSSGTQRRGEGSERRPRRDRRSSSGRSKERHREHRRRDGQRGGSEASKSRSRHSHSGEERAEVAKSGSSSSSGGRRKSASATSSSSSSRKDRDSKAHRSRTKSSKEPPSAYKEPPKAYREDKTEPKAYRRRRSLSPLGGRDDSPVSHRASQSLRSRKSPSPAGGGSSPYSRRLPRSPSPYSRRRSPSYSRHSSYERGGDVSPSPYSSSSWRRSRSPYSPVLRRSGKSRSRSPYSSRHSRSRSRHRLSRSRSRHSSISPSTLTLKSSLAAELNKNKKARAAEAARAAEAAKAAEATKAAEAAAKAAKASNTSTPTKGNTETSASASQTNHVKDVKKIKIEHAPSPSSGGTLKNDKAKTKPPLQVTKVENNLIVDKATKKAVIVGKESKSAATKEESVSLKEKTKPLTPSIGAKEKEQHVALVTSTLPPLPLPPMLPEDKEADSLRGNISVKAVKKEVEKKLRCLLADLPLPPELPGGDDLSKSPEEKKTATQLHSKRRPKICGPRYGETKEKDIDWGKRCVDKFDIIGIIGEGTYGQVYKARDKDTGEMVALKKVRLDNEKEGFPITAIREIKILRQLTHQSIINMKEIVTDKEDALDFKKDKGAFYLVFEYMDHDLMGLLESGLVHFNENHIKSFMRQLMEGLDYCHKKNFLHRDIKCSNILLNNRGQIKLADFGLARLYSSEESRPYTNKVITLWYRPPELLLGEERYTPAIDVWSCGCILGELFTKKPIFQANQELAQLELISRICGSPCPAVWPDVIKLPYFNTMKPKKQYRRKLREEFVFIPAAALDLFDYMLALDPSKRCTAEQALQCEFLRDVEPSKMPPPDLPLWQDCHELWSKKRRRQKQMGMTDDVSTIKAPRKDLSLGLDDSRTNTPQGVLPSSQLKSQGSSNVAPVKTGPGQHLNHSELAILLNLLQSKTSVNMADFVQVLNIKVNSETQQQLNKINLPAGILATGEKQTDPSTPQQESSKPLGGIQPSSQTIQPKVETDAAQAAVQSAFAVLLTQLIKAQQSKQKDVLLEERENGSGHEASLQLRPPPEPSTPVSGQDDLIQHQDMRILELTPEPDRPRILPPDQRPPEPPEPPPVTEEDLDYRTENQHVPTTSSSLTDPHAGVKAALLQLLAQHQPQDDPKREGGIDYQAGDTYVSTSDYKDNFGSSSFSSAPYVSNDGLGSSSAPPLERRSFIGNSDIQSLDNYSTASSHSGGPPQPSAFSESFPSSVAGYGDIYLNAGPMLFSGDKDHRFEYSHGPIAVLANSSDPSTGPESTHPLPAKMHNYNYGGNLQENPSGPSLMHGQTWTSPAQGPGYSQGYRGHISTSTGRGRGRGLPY
# [22] = target: Mitotic checkpoint serine/threonine-protein kinase BUB1 (Homo sapiens) (UniProt O43683); assay: Inhibition of wild-type human partial length BUB1 (Q724 to K1085 residues) expressed in mammalian expression system at 10 uM by Kinomescan method relative to control
# [23] = target: Serine/threonine-protein kinase MAK (Homo sapiens) (UniProt P20794); assay: Inhibition of wild-type human partial length MAK (M1 to P314 residues) expressed in bacterial expression system at 10 uM by Kinomescan method relative to control
# [24] = target: cAMP-dependent protein kinase catalytic subunit beta (Homo sapiens) (UniProt P22694); assay: Inhibition of wild-type human full length PKAC-beta (M1 to F351 residues) expressed in bacterial expression system at 10 uM by Kinomescan method relative to control
# [25] = target: Serine/threonine-protein kinase haspin (Homo sapiens) (UniProt Q8TF76); assay: Inhibition of wild-type human partial length HASPIN (I452 to K798 residues) expressed in mammalian expression system at 10 uM by Kinomescan method relative to control
# [26] = target: Mitogen-activated protein kinase 14 (Homo sapiens) (UniProt Q16539); assay: Inhibition of wild-type human full length p38-alpha (M1 to S360 residues) expressed in bacterial expression system at 10 uM by Kinomescan method relative to control
# Chain of Mitogen-activated protein kinase 14 (Homo sapiens) (Q16539 whole entry, the tested form may be a part): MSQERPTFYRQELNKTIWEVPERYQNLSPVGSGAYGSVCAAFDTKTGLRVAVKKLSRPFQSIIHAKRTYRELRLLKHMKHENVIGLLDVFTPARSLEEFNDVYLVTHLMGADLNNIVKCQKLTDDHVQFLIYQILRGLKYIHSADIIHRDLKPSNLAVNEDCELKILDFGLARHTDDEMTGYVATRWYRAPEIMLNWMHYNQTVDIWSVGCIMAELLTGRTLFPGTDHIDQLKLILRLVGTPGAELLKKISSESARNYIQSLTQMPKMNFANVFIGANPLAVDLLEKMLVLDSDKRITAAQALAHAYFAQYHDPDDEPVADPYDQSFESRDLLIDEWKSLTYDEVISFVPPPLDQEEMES
# [27] = target: Serine/threonine-protein kinase Chk2 (Homo sapiens) (UniProt O96017); assay: Inhibition of wild-type human partial length CHEK2 (S253 to E574 residues) expressed in bacterial expression system at 10 uM by Kinomescan method relative to control
# Chain of Serine/threonine-protein kinase WNK3 (Homo sapiens) (Q9BYP7 whole entry, the tested form may be a part): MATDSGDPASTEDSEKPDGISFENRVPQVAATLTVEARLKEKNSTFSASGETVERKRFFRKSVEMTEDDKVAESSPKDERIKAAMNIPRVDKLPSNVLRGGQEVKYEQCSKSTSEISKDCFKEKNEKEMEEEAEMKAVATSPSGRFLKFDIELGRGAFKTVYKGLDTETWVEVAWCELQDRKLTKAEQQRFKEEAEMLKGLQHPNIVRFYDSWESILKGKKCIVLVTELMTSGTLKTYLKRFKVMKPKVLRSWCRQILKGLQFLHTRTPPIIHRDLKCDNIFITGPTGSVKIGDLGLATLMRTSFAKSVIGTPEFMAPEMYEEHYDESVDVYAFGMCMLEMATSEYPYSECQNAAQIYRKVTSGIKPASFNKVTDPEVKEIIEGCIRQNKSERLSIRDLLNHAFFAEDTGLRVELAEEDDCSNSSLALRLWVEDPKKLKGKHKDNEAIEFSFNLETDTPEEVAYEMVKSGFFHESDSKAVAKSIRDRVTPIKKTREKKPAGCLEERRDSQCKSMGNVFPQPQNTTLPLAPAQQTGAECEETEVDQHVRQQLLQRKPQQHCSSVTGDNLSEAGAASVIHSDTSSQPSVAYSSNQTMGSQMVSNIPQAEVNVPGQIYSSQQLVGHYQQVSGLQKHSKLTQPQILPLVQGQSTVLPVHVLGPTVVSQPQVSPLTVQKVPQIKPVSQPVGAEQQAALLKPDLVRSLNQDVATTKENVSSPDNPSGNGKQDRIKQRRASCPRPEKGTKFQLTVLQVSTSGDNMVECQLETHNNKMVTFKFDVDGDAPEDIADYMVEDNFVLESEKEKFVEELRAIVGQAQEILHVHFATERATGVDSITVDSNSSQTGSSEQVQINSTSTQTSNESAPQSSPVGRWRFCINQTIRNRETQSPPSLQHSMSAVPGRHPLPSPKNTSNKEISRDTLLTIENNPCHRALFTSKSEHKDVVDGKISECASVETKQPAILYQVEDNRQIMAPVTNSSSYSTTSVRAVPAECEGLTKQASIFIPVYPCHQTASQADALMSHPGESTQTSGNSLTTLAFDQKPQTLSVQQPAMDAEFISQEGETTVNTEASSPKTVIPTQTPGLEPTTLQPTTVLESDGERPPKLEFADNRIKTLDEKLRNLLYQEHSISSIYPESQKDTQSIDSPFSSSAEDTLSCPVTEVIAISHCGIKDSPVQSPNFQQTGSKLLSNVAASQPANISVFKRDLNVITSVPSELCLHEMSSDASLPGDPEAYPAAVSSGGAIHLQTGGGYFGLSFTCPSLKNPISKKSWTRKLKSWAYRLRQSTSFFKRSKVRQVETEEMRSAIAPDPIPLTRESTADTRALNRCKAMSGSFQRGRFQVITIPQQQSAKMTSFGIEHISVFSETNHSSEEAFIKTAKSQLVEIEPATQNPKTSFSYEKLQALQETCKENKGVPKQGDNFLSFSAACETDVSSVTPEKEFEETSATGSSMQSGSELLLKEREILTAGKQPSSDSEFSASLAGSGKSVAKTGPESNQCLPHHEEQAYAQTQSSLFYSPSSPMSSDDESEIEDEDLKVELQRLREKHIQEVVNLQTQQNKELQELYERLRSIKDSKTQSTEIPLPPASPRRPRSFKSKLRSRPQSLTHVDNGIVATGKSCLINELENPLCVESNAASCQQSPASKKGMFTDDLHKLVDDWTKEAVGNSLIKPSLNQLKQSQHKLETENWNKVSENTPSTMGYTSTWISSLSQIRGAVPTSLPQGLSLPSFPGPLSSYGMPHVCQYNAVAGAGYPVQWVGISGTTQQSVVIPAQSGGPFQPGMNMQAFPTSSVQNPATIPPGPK
smiles,measurement,setting,value
O=C(Nc1cccc([C@@H]2CN(c3ncnc4[nH]ccc34)CCN2CCO)c1)Nc1c(F)cccc1N1CCCC1,inhibition,[1],61%
same,inhibition,[2],77%
same,inhibition,[3],94%
same,inhibition,[4],100%
same,inhibition,[5],97%
same,inhibition,[6],100%
same,inhibition,[7],100%
same,inhibition,[8],70%
O=C(Nc1cccc([C@H]2CCCN(c3ncnc4[nH]ccc34)C2)c1)Nc1ccccc1N1CCCC1,inhibition,[9],36%
same,inhibition,[10],0.25%
same,inhibition,[11],54%
same,inhibition,[12],100%
same,inhibition,[13],25%
same,inhibition,[14],62%
same,inhibition,[15],4.3%
same,inhibition,[16],73%
same,inhibition,[17],85%
same,inhibition,[18],100%
same,inhibition,[19],100%
same,inhibition,[20],49%
same,inhibition,[21],97%
same,inhibition,[22],55%
same,inhibition,[23],100%
same,inhibition,[24],100%
same,inhibition,[25],63%
same,inhibition,[26],100%
same,inhibition,[27],47%
